Experimental data reported in US8802597B2, “Herbicidal pyrimidines” (E I du Pont de Nemours and Company, priority 2003, dated 2014).

Experiments:
Experiment in all cases: Test C pre/postemergence
Assay type in all cases: in vivo
[1] = tested on: pigweed (Amaranthus retroflexus); details: for Pigweed plant response rating: scale 0 to 100 (0 no effect, 100 complete control)
Summary of the method: (§1)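 Applications: preemergence onto seeded soil and postemergence onto 1- to 4-leaf seedlings, compound carried in non-phytotoxic solvent plus surfactant. Kept in greenhouse 12 to 14 days. Scored visually relative to untreated controls, 0 (no effect) to 100 (complete control).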

[2] = tested on: crabgrass (Digitaria sanguinalis); details: for Crabgrass plant response rating: scale 0 to 100 (0 no effect, 100 complete control)
Summary of the method: as §1

[3] = tested on: goosegrass (Eleusine indica); details: for Goosegrass plant response rating: scale 0 to 100 (0 no effect, 100 complete control)
Summary of the method: as §1

[4] = tested on: corn (Zea mays); details: for Corn plant response rating: scale 0 to 100 (0 no effect, 100 complete control); for Plant response rating, Corn: scale 0 to 100
Summary of the method: as §1

[5] = tested on: common (oilseed) sunflower (Helianthus annuus); details: Preemergence
Summary of the method: as §1

[6] = tested on: cocklebur (Xanthium strumarium); details: for Cocklebur plant response rating: scale 0 to 100 (0 no effect, 100 complete control)
Summary of the method: as §1

[7] = tested on: velvetleaf (Abutilon theophrasti); details: for Velvetleaf plant response rating: scale 0 to 100 (0 no effect, 100 complete control)
Summary of the method: as §1

[8] = tested on: Surinam grass (Brachiaria decumbens); details: for Surinam Grass plant response rating: scale 0 to 100 (0 no effect, 100 complete control)
Summary of the method: as §1

[9] = tested on: lambsquarters (Chenopodium album); details: for Lambsquarters plant response rating: scale 0 to 100 (0 no effect, 100 complete control)
Summary of the method: as §1

[10] = tested on: kochia (Kochia scoparia); details: for Kochia plant response rating: scale 0 to 100 (0 no effect, 100 complete control)
Summary of the method: as §1

[11] = tested on: yellow nutsedge (Cyperus esculentus); details: for Nutsedge, Yellow plant response rating: scale 0 to 100 (0 no effect, 100 complete control)
Summary of the method: as §1

[12] = tested on: common ragweed (Ambrosia elatior); details: for Ragweed plant response rating: scale 0 to 100 (0 no effect, 100 complete control)
Summary of the method: as §1

[13] = Postemergence, 250 g ai/ha, scale 0 to 100
[14] = Postemergence, 500 g ai/ha, scale 0 to 100
[15] = Preemergence, 62 g ai/ha, scale 0 to 100, 0 no effect, 100 complete control
[16] = Preemergence, 125 g ai/ha, scale 0 to 100
[17] = Preemergence, 250 g ai/ha, scale 0 to 100
[18] = Preemergence, 500 g ai/ha, scale 0 to 100

CNN=Cc1nc(C2CC2)nc(N)c1Br [Compound 49]
Pigweed plant response rating ([1]; Postemergence, 62 g ai/ha): 65
Pigweed plant response rating ([1]; Postemergence, 125 g ai/ha): 80
Plant response rating, Pigweed [1, 13]: 95
Plant response rating, Pigweed [1, 14]: 95
Plant response rating, Pigweed [1, 15]: 85
Plant response rating, Pigweed [1, 16]: 90
Plant response rating, Pigweed [1, 17]: 100
Plant response rating, Pigweed [1, 18]: 100
Crabgrass plant response rating ([2]; Postemergence, 62 g ai/ha): 0
Crabgrass plant response rating ([2]; Postemergence, 125 g ai/ha): 65
Plant response rating, Crabgrass [2, 13]: 75
Plant response rating, Crabgrass [2, 14]: 95
Plant response rating, Crabgrass [2, 15]: 95
Plant response rating, Crabgrass [2, 16]: 95
Plant response rating, Crabgrass [2, 17]: 95
Plant response rating, Crabgrass [2, 18]: 100
Goosegrass plant response rating ([3]; Postemergence, 62 g ai/ha): 0
Goosegrass plant response rating ([3]; Postemergence, 125 g ai/ha): 0
Plant response rating, Goosegrass [3, 13]: 20
Plant response rating, Goosegrass [3, 14]: 25
Plant response rating, Goosegrass [3, 15]: 0
Plant response rating, Goosegrass [3, 16]: 0
Plant response rating, Goosegrass [3, 17]: 0
Plant response rating, Goosegrass [3, 18]: 15
Corn plant response rating ([4]; Postemergence, 62 g ai/ha): 0
Corn plant response rating ([4]; Postemergence, 125 g ai/ha): 0
Plant response rating, Corn ([4]; Postemergence, 250 g ai/ha): 20
Plant response rating, Corn ([4]; Postemergence, 500 g ai/ha): 25
Plant response rating, Corn ([4]; Preemergence, 125 g ai/ha): 15
Plant response rating, Corn ([4]; Preemergence, 250 g ai/ha): 15
Plant response rating, Corn ([4]; Preemergence, 500 g ai/ha): 65
Plant response rating, Sunflower ([5]; 62 g ai/ha, scale 0 to 100, 0 no effect, 100 complete control): 15
Plant response rating, Sunflower ([5]; 125 g ai/ha, scale 0 to 100): 75
Plant response rating, Sunflower ([5]; 250 g ai/ha, scale 0 to 100): 100
Plant response rating, Sunflower ([5]; 500 g ai/ha, scale 0 to 100): 100
Cocklebur plant response rating ([6]; Postemergence, 62 g ai/ha): 75
Cocklebur plant response rating ([6]; Postemergence, 125 g ai/ha): 95
Plant response rating, Cocklebur [6, 13]: 95
Plant response rating, Cocklebur [6, 14]: 95
Plant response rating, Cocklebur [6, 15]: 20
Plant response rating, Cocklebur [6, 16]: 95
Plant response rating, Cocklebur [6, 17]: 95
Plant response rating, Cocklebur [6, 18]: 100
Velvetleaf plant response rating ([7]; Postemergence, 62 g ai/ha): 45
Velvetleaf plant response rating ([7]; Postemergence, 125 g ai/ha): 70
Plant response rating, Velvetleaf [7, 13]: 75
Plant response rating, Velvetleaf [7, 14]: 80
Plant response rating, Velvetleaf [7, 15]: 15
Plant response rating, Velvetleaf [7, 16]: 70
Plant response rating, Velvetleaf [7, 17]: 90
Plant response rating, Velvetleaf [7, 18]: 100
Surinam Grass plant response rating ([8]; Postemergence, 62 g ai/ha): 0
Surinam Grass plant response rating ([8]; Postemergence, 125 g ai/ha): 0
Plant response rating, Surinam Grass [8, 13]: 40
Plant response rating, Surinam Grass [8, 14]: 45
Plant response rating, Surinam Grass [8, 15]: 0
Plant response rating, Surinam Grass [8, 16]: 15
Plant response rating, Surinam Grass [8, 17]: 40
Plant response rating, Surinam Grass [8, 18]: 65
Lambsquarters plant response rating ([9]; Postemergence, 62 g ai/ha): 70
Lambsquarters plant response rating ([9]; Postemergence, 125 g ai/ha): 90
Plant response rating, Lambsquarters [9, 13]: 95
Plant response rating, Lambsquarters [9, 14]: 95
Plant response rating, Lambsquarters [9, 15]: 100
Plant response rating, Lambsquarters [9, 16]: 100
Plant response rating, Lambsquarters [9, 17]: 100
Plant response rating, Lambsquarters [9, 18]: 100
Kochia plant response rating ([10]; Postemergence, 62 g ai/ha): 20
Kochia plant response rating ([10]; Postemergence, 125 g ai/ha): 45
Plant response rating, Kochia [10, 13]: 95
Plant response rating, Kochia [10, 14]: 100
Plant response rating, Kochia [10, 15]: 100
Plant response rating, Kochia [10, 16]: 100
Plant response rating, Kochia [10, 17]: 100
Plant response rating, Kochia [10, 18]: 100
Nutsedge, Yellow plant response rating ([11]; Postemergence, 62 g ai/ha): 0
Nutsedge, Yellow plant response rating ([11]; Postemergence, 125 g ai/ha): 0
Plant response rating, Nutsedge, Yellow [11, 13]: 0
Plant response rating, Nutsedge, Yellow [11, 14]: 0
Plant response rating, Nutsedge, Yellow [11, 15]: 0
Plant response rating, Nutsedge, Yellow [11, 16]: 0
Plant response rating, Nutsedge, Yellow [11, 17]: 0
Plant response rating, Nutsedge, Yellow [11, 18]: 0
Ragweed plant response rating ([12]; Postemergence, 62 g ai/ha): 45
Ragweed plant response rating ([12]; Postemergence, 125 g ai/ha): 65
Plant response rating, Ragweed [12, 13]: 75
Plant response rating, Ragweed [12, 14]: 90
Plant response rating, Ragweed [12, 15]: 70
Plant response rating, Ragweed [12, 16]: 100
Plant response rating, Ragweed [12, 17]: 100
Plant response rating, Ragweed [12, 18]: 100
